Measurements published in the supplement of paper PMC10307832.

What was measured:
Assay in all cases: relative viability (nuclei count vs DMSO), 5 days (fraction); higher = more cells survive
LCLC-103H = tested on: LCLC-103H
Summary of the method: (§1)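 Lung cancer cell lines, seeded in 1536-well plates, were treated the following day by pin tool with a single drug or with five library-drug doses (not always all listed) in √10 steps on top of a fixed anchor-drug dose. Cells were fixed and nuclei stained in one step after 5 days, and nuclei were counted. Relative viability is the nuclei count for treated wells divided by that for vehicle wells, reported as medians of duplicate plates.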

LXF-289 = tested on: LXF-289
Summary of the method: as §1

NCI-H1355 = tested on: NCI-H1355
Summary of the method: as §1

NCI-H1651 = tested on: NCI-H1651
Summary of the method: as §1

NCI-H1755 = tested on: NCI-H1755
Summary of the method: as §1

NCI-H1915 = tested on: NCI-H1915
Summary of the method: as §1

NCI-H2347 = tested on: NCI-H2347
Summary of the method: as §1

NCI-H3122 = tested on: NCI-H3122
Summary of the method: as §1

NCI-H322M = tested on: NCI-H322M
Summary of the method: as §1

NCI-H441 = tested on: NCI-H441
Summary of the method: as §1

NCI-H460 = tested on: NCI-H460
Summary of the method: as §1

NCI-H520 = tested on: NCI-H520
Summary of the method: as §1

NCI-H522 = tested on: NCI-H522
Summary of the method: as §1

NCI-H596 = tested on: NCI-H596
Summary of the method: as §1

NCI-H661 = tested on: NCI-H661
Summary of the method: as §1

NCI-H727 = tested on: NCI-H727
Summary of the method: as §1

PC-14 = tested on: PC-14
Summary of the method: as §1

RERF-LC-KJ = tested on: RERF-LC-KJ
Summary of the method: as §1

SK-MES-1 = tested on: SK-MES-1
Summary of the method: as §1

SW 900 = tested on: SW 900
Summary of the method: as §1

SMILES: CCN(CC)CCCCNc1ncc2cc(-c3cc(OC)cc(OC)c3)c(NC(=O)NC(C)(C)C)nc2n1 + O=C(CCCCCCC(=O)Nc1ccccc1)NO [Vorinostat] (partner 1 µM)
- relative viability (LCLC-103H; first compound 0.01 µM): 0.776
- relative viability (LCLC-103H; first compound 0.03162 µM): 0.805
- relative viability (LCLC-103H; first compound 0.1 µM): 0.775
- relative viability (LCLC-103H; first compound 0.3162 µM): 0.788
- relative viability (LCLC-103H; first compound 1 µM): 0.769
- relative viability (LXF-289; first compound 0.01 µM): 0.768
- relative viability (LXF-289; first compound 0.03162 µM): 0.905
- relative viability (LXF-289; first compound 0.1 µM): 0.829
- relative viability (LXF-289; first compound 0.3162 µM): 0.85
- relative viability (LXF-289; first compound 1 µM): 0.661
- relative viability (NCI-H1355; first compound 0.01 µM): 0.647
- relative viability (NCI-H1355; first compound 0.03162 µM): 0.654
- relative viability (NCI-H1355; first compound 0.1 µM): 0.67
- relative viability (NCI-H1355; first compound 0.3162 µM): 0.657
- relative viability (NCI-H1355; first compound 1 µM): 0.616
- relative viability (NCI-H1651; first compound 0.01 µM): 0.541
- relative viability (NCI-H1651; first compound 0.03162 µM): 0.626
- relative viability (NCI-H1651; first compound 0.1 µM): 0.582
- relative viability (NCI-H1651; first compound 0.3162 µM): 0.674
- relative viability (NCI-H1651; first compound 1 µM): 0.475
- relative viability (NCI-H1755; first compound 0.01 µM): 0.71
- relative viability (NCI-H1755; first compound 0.03162 µM): 0.919
- relative viability (NCI-H1755; first compound 0.1 µM): 0.848
- relative viability (NCI-H1755; first compound 0.3162 µM): 0.965
- relative viability (NCI-H1755; first compound 1 µM): 0.746
- relative viability (NCI-H1915; first compound 0.01 µM): 0.452
- relative viability (NCI-H1915; first compound 0.03162 µM): 0.531
- relative viability (NCI-H1915; first compound 0.1 µM): 0.537
- relative viability (NCI-H1915; first compound 0.3162 µM): 0.456
- relative viability (NCI-H1915; first compound 1 µM): 0.513
- relative viability (NCI-H2347; first compound 0.01 µM): 0.509
- relative viability (NCI-H2347; first compound 0.03162 µM): 0.543
- relative viability (NCI-H2347; first compound 0.1 µM): 0.705
- relative viability (NCI-H2347; first compound 0.3162 µM): 0.588
- relative viability (NCI-H2347; first compound 1 µM): 0.472
- relative viability (NCI-H3122; first compound 0.01 µM): 0.983
- relative viability (NCI-H3122; first compound 0.03162 µM): 1.06
- relative viability (NCI-H3122; first compound 0.1 µM): 1.09
- relative viability (NCI-H3122; first compound 0.3162 µM): 0.996
- relative viability (NCI-H3122; first compound 1 µM): 1.14
- relative viability (NCI-H322M; first compound 0.01 µM): 0.787
- relative viability (NCI-H322M; first compound 0.03162 µM): 0.911
- relative viability (NCI-H322M; first compound 0.1 µM): 0.934
- relative viability (NCI-H322M; first compound 0.3162 µM): 0.966
- relative viability (NCI-H322M; first compound 1 µM): 0.872
- relative viability (NCI-H441; first compound 0.01 µM): 0.863
- relative viability (NCI-H441; first compound 0.03162 µM): 0.829
- relative viability (NCI-H441; first compound 0.1 µM): 0.811
- relative viability (NCI-H441; first compound 0.3162 µM): 0.776
- relative viability (NCI-H441; first compound 1 µM): 0.826
- relative viability (NCI-H460; first compound 0.01 µM): 0.817
- relative viability (NCI-H460; first compound 0.03162 µM): 0.793
- relative viability (NCI-H460; first compound 0.1 µM): 1.39
- relative viability (NCI-H460; first compound 0.3162 µM): 0.763
- relative viability (NCI-H460; first compound 1 µM): 0.557
- relative viability (NCI-H520; first compound 0.01 µM): 0.783
- relative viability (NCI-H520; first compound 0.03162 µM): 0.731
- relative viability (NCI-H520; first compound 0.1 µM): 0.673
- relative viability (NCI-H520; first compound 0.3162 µM): 0.633
- relative viability (NCI-H520; first compound 1 µM): 0.273
- relative viability (NCI-H522; first compound 0.01 µM): 0.891
- relative viability (NCI-H522; first compound 0.03162 µM): 0.835
- relative viability (NCI-H522; first compound 0.1 µM): 1.19
- relative viability (NCI-H522; first compound 0.3162 µM): 0.948
- relative viability (NCI-H522; first compound 1 µM): 0.962
- relative viability (NCI-H596; first compound 0.01 µM): 0.658
- relative viability (NCI-H596; first compound 0.03162 µM): 0.699
- relative viability (NCI-H596; first compound 0.1 µM): 0.597
- relative viability (NCI-H596; first compound 0.3162 µM): 0.625
- relative viability (NCI-H596; first compound 1 µM): 0.579
- relative viability (NCI-H661; first compound 0.01 µM): 0.781
- relative viability (NCI-H661; first compound 0.03162 µM): 0.757
- relative viability (NCI-H661; first compound 0.1 µM): 0.856
- relative viability (NCI-H661; first compound 0.3162 µM): 0.839
- relative viability (NCI-H661; first compound 1 µM): 0.741
- relative viability (NCI-H727; first compound 0.01 µM): 1.2
- relative viability (NCI-H727; first compound 0.03162 µM): 1.09
- relative viability (NCI-H727; first compound 0.1 µM): 1.47
- relative viability (NCI-H727; first compound 0.3162 µM): 1.23
- relative viability (NCI-H727; first compound 1 µM): 1.23
- relative viability (PC-14; first compound 0.01 µM): 0.708
- relative viability (PC-14; first compound 0.03162 µM): 0.84
- relative viability (PC-14; first compound 0.1 µM): 0.969
- relative viability (PC-14; first compound 0.3162 µM): 0.881
- relative viability (PC-14; first compound 1 µM): 0.622
- relative viability (RERF-LC-KJ; first compound 0.01 µM): 0.748
- relative viability (RERF-LC-KJ; first compound 0.03162 µM): 0.71
- relative viability (RERF-LC-KJ; first compound 0.1 µM): 0.764
- relative viability (RERF-LC-KJ; first compound 0.3162 µM): 0.794
- relative viability (RERF-LC-KJ; first compound 1 µM): 0.661
- relative viability (SK-MES-1; first compound 0.01 µM): 1.15
- relative viability (SK-MES-1; first compound 0.03162 µM): 1.17
- relative viability (SK-MES-1; first compound 0.1 µM): 1.22
- relative viability (SK-MES-1; first compound 0.3162 µM): 1.52
- relative viability (SK-MES-1; first compound 1 µM): 1.19
- relative viability (SW 900; first compound 0.01 µM): 0.551
- relative viability (SW 900; first compound 0.03162 µM): 0.626
- relative viability (SW 900; first compound 0.1 µM): 0.44
- relative viability (SW 900; first compound 0.3162 µM): 0.412
- relative viability (SW 900; first compound 1 µM): 0.254
